What follows are molecules tested against T1, MAT2A (Homo sapiens, UniProt P31153) (assay: MAT2A biochemical assay (colorimetric inorganic phosphate detection, PiColorLock)). Conditions: recombinant His6-tagged MAT2A 1 μg/ml; 60 minutes preincubation at 25° C.; L-Met 80 μM, ATP 100 μM; 60 minutes reaction; read at 623 nm; read-out: MAT2A Inhibition Score.
T1 construct: His6; made in house; host or cells: SF9 insect cells
T1 sequence (P31153 whole entry): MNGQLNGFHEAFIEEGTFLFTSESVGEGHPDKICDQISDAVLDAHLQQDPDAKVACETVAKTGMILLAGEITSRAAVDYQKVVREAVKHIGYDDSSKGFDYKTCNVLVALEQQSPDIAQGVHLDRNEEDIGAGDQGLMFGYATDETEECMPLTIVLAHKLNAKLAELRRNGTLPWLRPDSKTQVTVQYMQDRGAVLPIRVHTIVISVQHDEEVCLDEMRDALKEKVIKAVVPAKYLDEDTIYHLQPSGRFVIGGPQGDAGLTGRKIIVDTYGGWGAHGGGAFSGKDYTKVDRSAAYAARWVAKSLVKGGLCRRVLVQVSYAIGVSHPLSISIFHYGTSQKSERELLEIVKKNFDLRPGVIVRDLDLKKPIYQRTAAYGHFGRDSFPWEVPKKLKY
Procedure: In the reaction catalyzed by MAT2A enzyme, L-Met and ATP were converted to SAM, inorganic phosphate, and inorganic diphosphate. […] The concentration of malachite green phosphomolybdate produced in the detection reaction is thus directly related to the quantity of product produced by the MAT2A enzyme. Multiple commercial kits exist for this method of phosphate detection and quantification, such as PiColorLock Gold (Innova Biosciences). Typical reaction was performed in 50 μl final volume, containing buffer (Tris, pH 8.0, 50 mM KCl, 15 mM MgCl2, 300 uM EDTA, bovine serum albumin at 0.005% w/v) and 1 μg/ml MAT2A. Compounds were added in 1 μl of DMSO at the desired concentration; a typical dose response curve contained ten points with three-fold dilution between compound concentrations. […] The reaction was allowed to proceed for 60 minutes at room temperature then halted by the addition of 13 μl of PiColor Lock reagent. After a further 5 minutes of incubation at room temperature, […] of PiColor Stabilizer was added and the reactions were further incubated at 25° C. for 25 minutes. […] Recombinant MAT2A protein was expressed in SF9 insect cells and purified by metal chelate affinity chromatography, using methods well known in the art. After expression of His6-tagged MAT2A cells were disrupted by 4 passes through an M-Yl 10 Micro fluidizer (Microfluidics) set to 500 psi, and then centrifuged at 22,000 rcf for 20 min at 4° C. The supernatant was harvested and loaded at 15 cm/h on a Histrap FF 5*1 ml column (GE) which was equilibrated with 50 mM Tris, 500 mM NaCl, pH7.4. Host cell contaminants were removed by washing the column with equilibration buffer followed by equilibration buffer containing 20 mM imidazole and 60 mM imidazole to baseline. MAT2A protein was eluted by the addition of buffer containing 250 mM imidazole, dialized into 50 mM NaCl, 50 mM Tris, pH 7.4, flash frozen in liquid nitrogen, and stored at −80° C. until use.
`Cc1[nH]c2c(-c3ccccc3)c(-c3ccccc3)nn2c(=O)c1C1=CCC(O)CC1` (stereo not drawn) [Compound 337, 6-(4-hydroxycyclohex-1-en-1-yl)-5-methyl-2,3-diphenylpyrazolo[1,5-a]pyrimidin-7(4H)-one] showed an IC50 of 100 to 1000 nM.
Molecule `COc1ccc(-c2c(Nc3nonc3N)[nH]c3c(-c4ccccc4)c(-c4ccccc4)nn3c2=O)cc1` [Compound 149, 5-((4-amino-1,2,5-oxadiazol-3-yl)amino)-6-(4-methoxyphenyl)-2,3-diphenylpyrazolo[1,5-a]pyrimidin-7(4H)-one] has an IC50 of less than 100 nM.
Work on `COc1ccc(-c2c(C)n(C)c3c(N4CCCCC4)c(-c4ccccc4)nn3c2=O)cc1` [Compound 269, 6-(4-methoxyphenyl)-4,5-dimethyl-2-phenyl-3-(piperidin-1-yl)pyrazolo[1,5-a]pyrimidin-7(4H)-one] yielded an IC50 of less than 100 nM.
`COc1ccc(-c2c(Nc3ccccn3)[nH]c3c(N4CCCCC4)c(-c4ccccc4)nn3c2=O)cc1` [Compound 181, 6-(4-methoxyphenyl)-2-phenyl-3-(piperidin-1-yl)-5-(pyridin-2-ylamino)pyrazolo[1,5-a]pyrimidin-7(4H)-one] gave an IC50 of less than 100 nM.
`CCOC(=O)n1ccc(Nc2[nH]c3c(-c4ccccc4)c(-c4ccccc4)nn3c(=O)c2-c2ccc(OC)cc2)n1` [Compound 287, ethyl 3-((6-(4-methoxyphenyl)-7-oxo-2,3-diphenyl-4,7-dihydropyrazolo[1,5-a]pyrimidin-5-yl)amino)-1H-pyrazole-1-carboxylate] showed an IC50 of less than 100 nM.
In the case of `NCc1[nH]c2c(C3=CCCCC3)c(-c3ccccc3)nn2c(=O)c1-c1ccc(O)cc1` [Compound 241, 5-(aminomethyl)-3-(cyclohex-1-en-1-yl)-6-(4-hydroxyphenyl)-2-phenylpyrazolo[1,5-a]pyrimidin-7(4H)-one], the IC50 is reported as less than 100 nM.
Work on `O=c1c(-c2ccc3ncccc3c2)c(CO)[nH]c2c(-c3ccccc3)c(-c3ccccc3)nn12` [Compound 319, 5-(hydroxymethyl)-2,3-diphenyl-6-(quinolin-6-yl)pyrazolo[1,5-a]pyrimidin-7(4H)-one] yielded an IC50 of 100 to 1000 nM.
Molecule `COc1ccc(-c2c(Nc3ccc(N)nn3)[nH]c3c(-c4ccccc4)c(-c4ccccc4)nn3c2=O)cc1` [Compound 123, 5-((6-aminopyridazin-3-yl)amino)-6-(4-methoxyphenyl)-2,3-diphenylpyrazolo[1,5-a]pyrimidin-7(4H)-one] has an IC50 of less than 100 nM.
`NC(=O)NCc1[nH]c2c(-c3ccccc3)c(-c3ccccc3)nn2c(=O)c1-c1ccc2ncccc2c1` [Compound 235, 1-((7-oxo-2,3-diphenyl-6-(quinolin-6-yl)-4,7-dihydropyrazolo[1,5-a]pyrimidin-5-yl)methyl)urea] was tested, and the IC50 was less than 100 nM.
Molecule `O=c1c(-c2ccc(O)cc2)c(Nc2cnccn2)[nH]c2c(C3=CCCCC3)c(-c3ccccc3)nn12` [Compound 194, 3-cyclohexenyl-6-(4-hydroxyphenyl)-2-phenyl-5-(pyrazin-2-ylamino)pyrazolo[1,5-a]pyrimidin-7(4H)-one] has an IC50 of less than 100 nM.
With `COc1ccc(-c2c(Nc3cnccn3)[nH]c3c(C4=CCCCC4)c(-c4ccccc4)nn3c2=O)cc1` [Compound 158, 3-cyclohexenyl-6-(4-methoxyphenyl)-2-phenyl-5-(pyrazin-2-ylamino) pyrazolo[1,5-a]pyrimidin-7(4H)-one] the IC50 was less than 100 nM.
`O=c1c(-c2ccc3c(c2)OCCO3)c(CO)[nH]c2c(C3=CCCCC3)c(-c3ccccc3)nn12` [Compound 225, 3-(cyclohex-1-en-1-yl)-6-(2,3-dihydrobenzo[b][1,4]dioxin-6-yl)-5-(hydroxymethyl)-2-phenylpyrazolo[1,5-a]pyrimidin-7(4H)-one] gave an IC50 of less than 100 nM.
`Cc1[nH]c2c(-c3ccccc3)c(-c3ccc(Cl)cc3)nn2c(=O)c1-c1ccc2ncccc2c1` [Compound 347, 2-(4-chlorophenyl)-5-methyl-3-phenyl-6-(quinolin-6-yl)pyrazolo[1,5-a]pyrimidin-7(4H)-one] was tested, and the IC50 was 1000 to 10000 nM.
For `COc1ccc(-c2c(C)[nH]c3c(-c4ccccc4)c(-c4ccccc4)nn3c2=O)cc1` [Compound 209, 6-(4-methoxyphenyl)-5-methyl-2,3-diphenylpyrazolo[1,5-a]pyrimidin-7(4H)-one], the IC50 was less than 100 nM.
`COc1ccc(-c2c(Nc3cnc(N)cn3)[nH]c3c(-c4ccccc4)c(-c4ccccc4)nn3c2=O)cc1` [Compound 130, 5-((5-aminopyrazin-2-yl)amino)-6-(4-methoxyphenyl)-2,3-diphenylpyrazolo[1,5-a]pyrimidin-7(4H)-one] was tested, and the IC50 was less than 100 nM.
In the case of `Cc1[nH]c2c(N3CCCCC3)c(-c3ccccc3)nn2c(=O)c1-c1ccncc1` [Compound 304, 5-methyl-2-phenyl-3-(piperidin-1-yl)-6-(pyridin-4-yl)pyrazolo[1,5-a]pyrimidin-7(4H)-one], the IC50 is reported as 100 to 1000 nM.
Molecule `Cc1[nH]c2c(-c3ccccc3)c(-c3ccccc3)nn2c(=O)c1-c1ccc2ncnc(N)c2c1` [Compound 330, 6-(4-aminoquinazolin-6-yl)-5-methyl-2,3-diphenylpyrazolo[1,5-a]pyrimidin-7(4H)-one] has an IC50 of 100 to 1000 nM.
`Cc1[nH]c2c(-c3ccccc3)c(-c3ccccc3)nn2c(=O)c1-c1ccc2occc2c1` [Compound 334, 6-(benzofuran-5-yl)-5-methyl-2,3-diphenylpyrazolo[1,5-a]pyrimidin-7(4H)-one] showed an IC50 of 100 to 1000 nM.
`Cc1[nH]c2c(N3CCCCC3)c(-c3ccccc3)nn2c(=O)c1N1CCC(O)CC1` [Compound 311, 6-(4-hydroxypiperidin-1-yl)-5-methyl-2-phenyl-3-(piperidin-1-yl)pyrazolo[1,5-a]pyrimidin-7(4H)-one] showed an IC50 of 100 to 1000 nM.
Molecule `O=c1c(-c2ccc3ncccc3c2)c(O)[nH]c2c(-c3ccccc3)c(-c3ccccc3)nn12` [Compound 275, 5-hydroxy-2,3-diphenyl-6-(quinolin-6-yl)pyrazolo[1,5-a]pyrimidin-7(4H)-one] has an IC50 of less than 100 nM.
`O=c1c(-c2ccc3nccnc3c2)c(CO)[nH]c2c(C3=CCCCC3)c(-c3ccccc3)nn12` [Compound 231, 3-(cyclohex-1-en-1-yl)-5-(hydroxymethyl)-2-phenyl-6-(quinoxalin-6-yl)pyrazolo[1,5-a]pyrimidin-7(4H)-one] showed an IC50 of less than 100 nM.
`COc1ccc(-c2c(Nc3ncccc3O)[nH]c3c(-c4ccccc4)c(-c4ccccc4)nn3c2=O)cc1` [Compound 113, 5-(3-hydroxypyridin-2-ylamino)-6-(4-methoxy-phenyl)-2,3-diphenylpyrazolo[1,5-a]pyrimidin-7(4H)-one] gave an IC50 of less than 100 nM.
`COc1ccc(-c2c(Nc3nnc(O)s3)[nH]c3c(-c4ccccc4)c(-c4ccccc4)nn3c2=O)cc1` [Compound 146, 5-((5-hydroxy-1,3,4-thiadiazol-2-yl)amino)-6-(4-methoxyphenyl)-2,3-diphenylpyrazolo[1,5-a]pyrimidin-7(4H)-one] gave an IC50 of less than 100 nM.
`COc1cc(-c2c(C)[nH]c3c(-c4ccccc4)c(-c4ccccc4)nn3c2=O)ccc1O` [Compound 259, 6-(4-hydroxy-3-methoxyphenyl)-5-methyl-2,3-diphenylpyrazolo[1,5-a]pyrimidin-7(4H)-one] gave an IC50 of less than 100 nM.
`COc1ccc(-c2c(Nc3ncns3)[nH]c3c(-c4ccccc4)c(-c4ccccc4)nn3c2=O)cc1` [Compound 147, 5-((1,2,4-thiadiazol-5-yl)amino)-6-(4-methoxyphenyl)-2,3-diphenylpyrazolo[1,5-a]pyrimidin-7(4H)-one] gave an IC50 of less than 100 nM.
`O=C1NCCN1Cc1[nH]c2c(-c3ccccc3)c(-c3ccccc3)nn2c(=O)c1-c1ccc2ncccc2c1` [Compound 324, 5-((2-oxoimidazolidin-1-yl)methyl)-2,3-diphenyl-6-(quinolin-6-yl)pyrazolo[1,5-a]pyrimidin-7(4H)-one] gave an IC50 of 1000 to 10000 nM.
With `COc1ccc(-c2c(C)[nH]c3c(N4CCC(F)(F)CC4)c(-c4ccccc4)nn3c2=O)cc1` [Compound 213, 3-(4,4-difluoropiperidin-1-yl)-6-(4-methoxyphenyl)-5-methyl-2-phenylpyrazolo[1,5-a]pyrimidin-7(4H)-one] the IC50 was less than 100 nM.
For `Cc1[nH]c2c(-c3ccccc3)c(-c3cc[nH]n3)nn2c(=O)c1-c1ccc2ncccc2c1` [Compound 280, 5-methyl-3-phenyl-2-(1H-pyrazol-3-yl)-6-(quinolin-6-yl)pyrazolo[1,5-a]pyrimidin-7(4H)-one], the IC50 was less than 100 nM.
`Cc1[nH]c2c(-c3ccccc3)c(-c3ccccc3)nn2c(=O)c1-c1ccc(O)c(OCCO)c1` [Compound 261, 6-(4-hydroxy-3-(2-hydroxyethoxy)phenyl)-5-methyl-2,3-diphenylpyrazolo[1,5-a]pyrimidin-7(4H)-one] gave an IC50 of less than 100 nM.
`O=C(Nc1[nH]c2c(-c3ccccc3)c(-c3ccccc3)nn2c(=O)c1-c1ccc2ncccc2c1)C1CC1` [Compound 326, N-(7-oxo-2,3-diphenyl-6-(quinolin-6-yl)-4,7-dihydropyrazolo[1,5-a]pyrimidin-5-yl)cyclopropanecarboxamide] gave an IC50 of 1000 to 10000 nM.

Source: patent US10800782B2, “Inhibitors of cellular metabolic processes” (Agios Pharmaceuticals, Inc., priority 2016, dated 2020)
